Among the test systems are U251 CNS; SF-295 CNS; SW-620 colon; OVCAR-4 ovarian; K-562 leukemia; CAKI-1 renal; CCRF-CEM leukemia; COLO 205 colon.
Assay in all cases: NCI-60 cell line screen, 48 h

This passage reports TGI and GI50 results from PubChem BioAssay (NCI).

Each structure is given as a SMILES string.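 Step 1: Grow cells in 96-well plates. Step 2: Expose to compound for 48 hours at 5 concentrations. Step 3: Interpolate endpoints linearly; if unreached, use highest concentration. Here, GI50 denotes the concentration required for 50% inhibition of growth. TGI: concentration producing complete growth inhibition.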

As to `COc1c2c(c(O)c3c4c(c(C)cc13)C1OC3(C(OC)OC5CC(C)(O)C(OC6CC(C)(O)C(O)C(C)O6)C(C)O5)OC1C(OC)(O4)C31CO1)C(=O)C(O)CC2OC1CC(C)(O)C(OC(C)=O)C(C)O1` (stereo unspecified), the TGI with U251 CNS is under 0.0108 µM; in the test on SF-295 CNS it was under 0.023 µM; in the test on SW-620 colon it was 1.23 µM; in the test with OVCAR-4 ovarian, under 0.01 µM; in the test on K-562 leukemia, 1.66 µM; in the test on CAKI-1 renal it was 2.71 µM.
`Cc1nc(Nc2ccc(Cl)cc2)sc1C(=O)Nc1cccc2c(=O)[nH][nH]c(=O)c12`: the TGI in the test with U251 CNS was over 100 µM; in the test with SF-295 CNS it was 74.3 µM; in the test on SW-620 colon, over 100 µM; in the test on OVCAR-4 ovarian, over 100 µM; with CCRF-CEM leukemia, 79.5 µM; in the test on COLO 205 colon, 34 µM. Further, the results for the TGI in the test with K-562 leukemia and in the test with CAKI-1 renal were 47.3 µM and over 100 µM, respectively.
Consider `c1ccc(N2CCN(CCN3CCc4c([nH]c5ccccc45)C3c3cccnc3)CC2)cc1` (stereo unspecified), for which the TGI in the test on U251 CNS, in the test on SF-295 CNS, in the test on SW-620 colon, in the test with OVCAR-4 ovarian, in the test with CCRF-CEM leukemia and in the test on K-562 leukemia was over 100 µM each time. In the test on CAKI-1 renal, this compound displayed a TGI of over 100 µM.
In the case of `COc1ccccc1/C=C(\NC(=O)c1ccccc1)c1nc2ccccc2[nH]1`, the TGI in the test on U251 CNS is over 100 µM; in the test on SW-620 colon it was over 100 µM; in the test with OVCAR-4 ovarian, over 100 µM; with CCRF-CEM leukemia, over 100 µM; in the test with COLO 205 colon it was 80.3 µM; in the test on K-562 leukemia, over 100 µM. Moreover, in the test with CAKI-1 renal, the TGI is over 100 µM.
For the compound `C=C(c1ccccc1)c1cc2c(=O)[nH]ccc2n1C`, the TGI is 82.9 µM in the test on SF-295 CNS; over 100 µM in the test on SW-620 colon; over 100 µM in the test with OVCAR-4 ovarian; over 100 µM with CCRF-CEM leukemia; 35.6 µM with COLO 205 colon; 46.3 µM in the test with K-562 leukemia. In the test with CAKI-1 renal, this compound gave a TGI of over 100 µM.
Regarding `Cc1cc(O)c2c(c1)OC1(C)CCC3C(C)(C)CCCC34COC2C14` (stereo unspecified), the TGI stood at 28.3 µM with SF-295 CNS; 30 µM in the test with SW-620 colon; 33.5 µM with OVCAR-4 ovarian; 42.7 µM in the test with CCRF-CEM leukemia; 29.9 µM in the test on COLO 205 colon; 46.3 µM with K-562 leukemia. The TGI in the test with CAKI-1 renal stood at 32.9 µM.
For `O=C(Cc1nc2ccccc2s1)C(=O)Nc1cccc(C(F)(F)F)c1`, the TGI with U251 CNS, in the test with SF-295 CNS, in the test on SW-620 colon, in the test with OVCAR-4 ovarian, in the test with CCRF-CEM leukemia and in the test on COLO 205 colon was over 100 µM each time. Also, the TGI in the test with CAKI-1 renal was over 100 µM.
On to `C[C@@H]1CC2(C[C@@H](C)C3[C@@H](CC4(C)CCCC5C6=CC(O)(CC[C@]34C)OC6=CC(=O)OC5(C)C)O2)OC1=O` (stereo partly specified), for which the TGI in the test on U251 CNS, in the test with SW-620 colon, in the test on OVCAR-4 ovarian, in the test with COLO 205 colon and in the test with K-562 leukemia was over 100 µM each time.
Take `N.N.N.N.O=S([O-])[O-].[Co+3].[N-]=[N+]=[N-]`: the GI50 in the test on U251 CNS, with SF-295 CNS, with SW-620 colon, in the test on OVCAR-4 ovarian, in the test on CCRF-CEM leukemia and with COLO 205 colon was over 100 µM each time. In addition, in the test with K-562 leukemia, the GI50 is over 100 µM. The TGI in the test with U251 CNS, with SF-295 CNS, in the test on SW-620 colon, in the test on OVCAR-4 ovarian, in the test on CCRF-CEM leukemia and with COLO 205 colon was over 100 µM throughout. Also, the TGI with K-562 leukemia was over 100 µM.
In the case of `COC(=O)CCC(NC(=S)N/N=C(\C)c1cccs1)C(=O)OC` (stereo unspecified), the TGI with U251 CNS, in the test on SF-295 CNS, in the test with SW-620 colon, in the test on OVCAR-4 ovarian, in the test with COLO 205 colon and with K-562 leukemia was over 100 µM in each case.
Turning to `O=C(Nc1ccccc1)N1C(c2ccccc2)=N[C@@H](c2ccccc2)[C@@H]1c1ccccc1`, the TGI in the test with SF-295 CNS is 62.7 µM; in the test with SW-620 colon it was 35.2 µM; with OVCAR-4 ovarian, 44.6 µM; with CCRF-CEM leukemia, 60 µM; in the test on COLO 205 colon, 28.8 µM; with K-562 leukemia, 50.9 µM. Also, the TGI in the test with CAKI-1 renal was found to be 48.7 µM.
Take `CNC(=O)NCCCCC(NC(C)=O)C(=O)NCc1ccccc1` (stereo unspecified): the TGI with U251 CNS, in the test on SF-295 CNS, in the test with SW-620 colon, in the test on OVCAR-4 ovarian, in the test on CCRF-CEM leukemia and in the test with COLO 205 colon was over 100 µM each time. In the test on CAKI-1 renal, this compound showed a TGI of over 100 µM.
`CN(C)C(=S)/N=c1\ssc(=Nc2ccccc2)n1-c1ccccc1`: the TGI was 70.7 µM in the test with U251 CNS; over 100 µM with SF-295 CNS; over 100 µM in the test on SW-620 colon; 18.9 µM with OVCAR-4 ovarian; over 100 µM in the test on CCRF-CEM leukemia; over 100 µM with K-562 leukemia. Moreover, in the test with CAKI-1 renal, the TGI turned out to be 75.6 µM.
As to `NCCOCCOCC(=O)O`, the TGI in the test with U251 CNS, in the test with SF-295 CNS, with SW-620 colon, in the test on OVCAR-4 ovarian, in the test on K-562 leukemia and in the test with CAKI-1 renal was over 100 µM each time.
